Reference: patent publication US12371428B2 (Exelixis, Inc., priority 2019, dated 2025)
Counter-ions that a name gives are not always drawn. Like-named read-outs stand apart in the source and are kept apart here.

Experiments:
[1] = biological target: Met (phospho-Met, HGF-stimulated PC-3 prostate cancer cells) (Homo sapiens (Human), UniProt P08581); experiment: Met autophosphorylation ELISA in PC-3 cells (Example F); format: cell-based; conditions: cellular activity; Met autophosphorylation ELISA in PC-3 cells; read-out: c-Met IC50
Chain of Met (phospho-Met, HGF-stimulated PC-3 prostate cancer cells) (P08581 25-1390): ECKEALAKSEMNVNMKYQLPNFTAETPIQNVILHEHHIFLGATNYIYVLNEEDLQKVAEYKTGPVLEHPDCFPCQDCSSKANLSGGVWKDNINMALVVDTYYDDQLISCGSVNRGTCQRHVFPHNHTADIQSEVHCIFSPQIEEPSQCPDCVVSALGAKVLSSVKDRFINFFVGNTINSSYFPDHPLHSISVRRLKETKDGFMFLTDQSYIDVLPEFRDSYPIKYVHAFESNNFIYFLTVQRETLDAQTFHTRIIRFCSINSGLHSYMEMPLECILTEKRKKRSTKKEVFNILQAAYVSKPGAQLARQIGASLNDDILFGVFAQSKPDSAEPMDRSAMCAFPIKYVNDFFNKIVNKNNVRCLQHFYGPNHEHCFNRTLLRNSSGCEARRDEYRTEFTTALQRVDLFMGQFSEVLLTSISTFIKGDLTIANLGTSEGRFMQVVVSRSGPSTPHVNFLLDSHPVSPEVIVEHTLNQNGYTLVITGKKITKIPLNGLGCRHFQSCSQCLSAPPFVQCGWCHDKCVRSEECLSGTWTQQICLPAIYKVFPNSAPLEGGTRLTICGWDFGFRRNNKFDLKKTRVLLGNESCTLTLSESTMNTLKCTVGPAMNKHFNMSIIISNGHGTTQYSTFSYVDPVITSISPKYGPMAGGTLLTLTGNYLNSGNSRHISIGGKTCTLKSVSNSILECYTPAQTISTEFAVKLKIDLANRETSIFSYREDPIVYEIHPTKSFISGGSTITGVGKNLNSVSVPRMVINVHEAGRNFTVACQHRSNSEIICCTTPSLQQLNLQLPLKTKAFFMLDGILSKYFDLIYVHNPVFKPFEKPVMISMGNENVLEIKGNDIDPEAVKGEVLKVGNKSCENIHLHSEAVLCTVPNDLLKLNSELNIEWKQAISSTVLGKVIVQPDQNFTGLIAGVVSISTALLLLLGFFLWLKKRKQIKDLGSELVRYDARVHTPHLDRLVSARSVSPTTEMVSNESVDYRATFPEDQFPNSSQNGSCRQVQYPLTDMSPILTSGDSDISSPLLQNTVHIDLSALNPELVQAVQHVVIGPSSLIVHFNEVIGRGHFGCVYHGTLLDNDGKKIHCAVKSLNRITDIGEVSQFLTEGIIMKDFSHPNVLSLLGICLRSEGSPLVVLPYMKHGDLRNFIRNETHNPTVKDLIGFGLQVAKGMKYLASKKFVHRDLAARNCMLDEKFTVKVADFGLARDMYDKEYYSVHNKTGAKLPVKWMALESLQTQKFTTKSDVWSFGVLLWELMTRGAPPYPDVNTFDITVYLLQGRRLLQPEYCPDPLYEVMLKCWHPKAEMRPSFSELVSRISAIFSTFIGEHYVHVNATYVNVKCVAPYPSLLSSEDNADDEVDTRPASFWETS
Method in brief: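 PC-3 cells, serum-starved 3 h, were treated with compounds (8-point dose curve, 0.3% DMSO final) for 1 h, then stimulated with 100 ng/mL recombinant human HGF for 10 min. Lysate phospho-Met (panTyr) was quantified by sandwich ELISA; IC50 from 4-parameter logistic fit.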

[2] = biological target: KDR (phospho-KDR, VEGF165-stimulated HUVEC cells) (Homo sapiens (Human), UniProt P35968); experiment: KDR autophosphorylation ELISA in HUVEC cells (Example G); format: cell-based; conditions: cellular activity; KDR autophosphorylation ELISA in HUVEC cells
Chain of KDR (phospho-KDR, VEGF165-stimulated HUVEC cells) (P35968 20-1356): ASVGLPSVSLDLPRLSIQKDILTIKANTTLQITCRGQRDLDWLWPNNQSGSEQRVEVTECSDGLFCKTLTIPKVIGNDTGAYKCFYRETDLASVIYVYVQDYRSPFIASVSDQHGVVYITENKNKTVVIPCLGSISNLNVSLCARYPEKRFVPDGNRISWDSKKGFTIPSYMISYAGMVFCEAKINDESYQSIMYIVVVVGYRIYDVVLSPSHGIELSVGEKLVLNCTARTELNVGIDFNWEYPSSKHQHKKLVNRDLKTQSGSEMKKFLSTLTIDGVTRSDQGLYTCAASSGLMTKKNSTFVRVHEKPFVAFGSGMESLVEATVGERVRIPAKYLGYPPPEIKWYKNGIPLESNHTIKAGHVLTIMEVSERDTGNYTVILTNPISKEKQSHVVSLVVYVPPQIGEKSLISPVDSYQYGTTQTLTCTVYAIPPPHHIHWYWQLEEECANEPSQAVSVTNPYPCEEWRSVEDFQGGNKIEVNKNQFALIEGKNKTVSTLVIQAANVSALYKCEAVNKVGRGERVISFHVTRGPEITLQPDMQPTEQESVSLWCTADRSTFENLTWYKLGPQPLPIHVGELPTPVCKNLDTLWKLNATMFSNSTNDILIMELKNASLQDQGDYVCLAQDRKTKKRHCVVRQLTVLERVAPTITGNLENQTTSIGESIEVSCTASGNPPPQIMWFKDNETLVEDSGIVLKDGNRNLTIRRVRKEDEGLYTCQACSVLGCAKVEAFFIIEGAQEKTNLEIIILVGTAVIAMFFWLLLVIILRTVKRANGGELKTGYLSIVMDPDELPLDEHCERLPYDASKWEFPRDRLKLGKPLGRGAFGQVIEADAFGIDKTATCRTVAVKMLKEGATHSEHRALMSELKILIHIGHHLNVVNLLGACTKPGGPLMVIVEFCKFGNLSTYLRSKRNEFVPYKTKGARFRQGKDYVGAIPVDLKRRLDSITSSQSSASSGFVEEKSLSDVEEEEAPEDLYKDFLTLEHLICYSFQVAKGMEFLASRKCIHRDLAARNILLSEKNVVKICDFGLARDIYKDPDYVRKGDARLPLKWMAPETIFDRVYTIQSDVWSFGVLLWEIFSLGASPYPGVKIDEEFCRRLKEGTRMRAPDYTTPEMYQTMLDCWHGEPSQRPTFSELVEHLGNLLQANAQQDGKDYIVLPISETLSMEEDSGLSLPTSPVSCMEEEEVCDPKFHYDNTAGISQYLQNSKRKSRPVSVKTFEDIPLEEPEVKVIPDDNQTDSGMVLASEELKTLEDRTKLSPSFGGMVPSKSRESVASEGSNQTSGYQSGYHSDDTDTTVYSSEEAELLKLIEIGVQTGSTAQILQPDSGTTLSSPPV
Method in brief: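 Cells seeded, grown 24 h at 37 °C, starved 24 h serum-free; cpd 8-pt curve, 0.3% DMSO, 1 h; VEGF165 100 ng/mL, 5 min; cold PBS wash, lysis with orthovanadate and protease/phosphatase inhibitors; pKDR ELISA; IC50 by 4-parameter logistic regression.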

[3] = biological target: Human KDR (residues 790-1356) (Homo sapiens (Human), UniProt P35968); experiment: Human KDR kinase assay, HTRF KinEase (Example B-2); format: biochemical
Chain of Human KDR (residues 790-1356) (P35968 790-1356): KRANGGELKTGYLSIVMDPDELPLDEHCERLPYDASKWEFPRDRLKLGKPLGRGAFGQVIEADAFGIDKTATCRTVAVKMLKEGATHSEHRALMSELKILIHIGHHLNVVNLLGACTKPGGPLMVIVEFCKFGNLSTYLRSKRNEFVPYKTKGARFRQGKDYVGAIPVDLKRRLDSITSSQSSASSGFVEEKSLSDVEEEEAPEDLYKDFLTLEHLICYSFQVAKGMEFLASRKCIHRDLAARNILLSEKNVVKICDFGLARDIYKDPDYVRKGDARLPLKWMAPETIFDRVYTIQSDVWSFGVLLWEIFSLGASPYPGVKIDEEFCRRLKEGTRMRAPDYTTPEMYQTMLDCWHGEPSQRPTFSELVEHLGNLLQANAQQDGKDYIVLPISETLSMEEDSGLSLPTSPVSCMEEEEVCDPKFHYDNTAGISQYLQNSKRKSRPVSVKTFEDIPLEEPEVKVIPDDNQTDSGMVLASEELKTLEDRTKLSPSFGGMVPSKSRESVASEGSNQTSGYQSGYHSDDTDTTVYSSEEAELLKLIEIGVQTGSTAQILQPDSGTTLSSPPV
Method in brief: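 Human KDR residues 790-1356 (0.1 ng/well) in buffer with 5 mM MgCl2, 1 mM MnCl2, 1 mM DTT, biotinylated peptide substrate, ATP at Km (4.0 μM), 3% DMSO, 10 compound concentrations; 40 min, room temperature. EDTA stop, streptavidin-XL665/Eu-TK antibody HTRF read 665/620 nm; 4-parameter IC50.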

[4] = biological target: Human MET (residues 956-1390) (Homo sapiens (Human), UniProt P08581); experiment: Human Met kinase assay, HTRF KinEase (Example D-2); format: biochemical; conditions: read-out: c-Met IC50
Chain of Human MET (residues 956-1390) (P08581 956-1390): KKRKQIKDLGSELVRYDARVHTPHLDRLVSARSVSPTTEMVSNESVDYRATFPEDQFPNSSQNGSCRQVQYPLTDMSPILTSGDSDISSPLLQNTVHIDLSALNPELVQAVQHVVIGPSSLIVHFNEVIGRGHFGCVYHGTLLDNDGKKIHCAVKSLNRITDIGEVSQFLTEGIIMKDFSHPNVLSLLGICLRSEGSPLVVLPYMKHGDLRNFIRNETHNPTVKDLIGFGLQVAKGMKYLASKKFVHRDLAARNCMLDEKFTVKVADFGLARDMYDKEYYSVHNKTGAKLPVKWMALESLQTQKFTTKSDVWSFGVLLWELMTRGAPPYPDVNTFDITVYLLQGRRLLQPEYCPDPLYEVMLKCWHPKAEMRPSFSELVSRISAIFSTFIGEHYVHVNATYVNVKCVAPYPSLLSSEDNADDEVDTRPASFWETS
Method in brief: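 HTRF KinEase assay on MET residues 956-1390 (0.1 ng/well) in buffer with 5 mM MgCl2, 1 mM DTT and 1 mM MnCl2, with biotinylated peptide substrate, ATP at Km, 10 compound concentrations and 3% DMSO final, run 40 min at room temperature. The […] signal was normalized to DMSO and to 1 μM reference compound, and IC50 came from a 4-parameter logistic fit.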

[5] = biological target: Human MER (residues 528-999) (Homo sapiens (Human), UniProt Q12866); experiment: Human Mer kinase assay, HTRF KinEase (Example C-2); format: biochemical
Chain of Human MER (residues 528-999) (Q12866 528-999): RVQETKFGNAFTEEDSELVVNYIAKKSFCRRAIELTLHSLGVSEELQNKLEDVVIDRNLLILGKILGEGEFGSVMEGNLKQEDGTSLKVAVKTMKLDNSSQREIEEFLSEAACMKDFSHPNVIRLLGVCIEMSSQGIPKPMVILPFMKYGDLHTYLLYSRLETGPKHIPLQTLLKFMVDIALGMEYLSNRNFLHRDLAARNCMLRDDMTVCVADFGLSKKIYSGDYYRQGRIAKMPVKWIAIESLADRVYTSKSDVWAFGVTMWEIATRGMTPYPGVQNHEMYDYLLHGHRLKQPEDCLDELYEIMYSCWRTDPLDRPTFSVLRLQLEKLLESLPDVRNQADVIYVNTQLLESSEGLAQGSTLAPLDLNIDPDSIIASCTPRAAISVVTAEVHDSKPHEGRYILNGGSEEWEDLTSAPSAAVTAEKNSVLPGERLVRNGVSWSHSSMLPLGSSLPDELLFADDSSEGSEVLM
Method in brief: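 HTRF KinEase TK assay with MER 528-999 (1 ng/well) in enzymatic buffer plus 5 mM MgCl2 and 1 mM DTT, biotinylated peptide substrate and ATP at Km (40 μM), 3% DMSO final, 60 min at room temperature. Stopped with EDTA detection mix (SA-XL665, TK antibody-Eu3+), read at 665/620 nm after 60 min; IC50 from 10-point 4-parameter fit, normalized to DMSO and 1 μM reference.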

[6] = protocol of Example B-2 (other compounds)
[7] = protocol of Example D-2 (other compounds)
[8] = protocol of Example C-2 (other compounds)

Row | IC50 [1] [nM] | IC50 [2] [nM] | IC50 [3, 6] [nM] | IC50 [4, 7] [nM] | IC50 [5, 8] [nM] | IC50 ([3]; protocol of Example B-2) [nM] | IC50 ([4]; protocol of Example D-2) [nM] | IC50 ([5]; protocol of Example C-2) [nM] | SMILES
1 | < 100 | < 100 | < 100 | < 100 | < 100 |  |  |  | COc1nc2c(Oc3ccc(NC(=O)c4cnc(C)c(-c5ccc(F)cc5)c4O)cc3F)ccnc2cc1Br [Compound 130, N-[4-[(7-Bromo-6-methoxy-1,5-naphthyridin-4-yl)oxy]-3-fluorophenyl]-5-(4-fluorophenyl)-4-hydroxy-6-methylpyridine-3-carboxamide]
2 | < 100 | < 100 | < 100 | < 100 | < 100 |  |  |  | COc1cc2nccc(Oc3ccc(NC(=O)c4cnc(C)c(-c5ccc(F)cc5)c4O)cc3F)c2nc1Br [Compound 142, N-[4-[(6-Bromo-7-methoxy-1,5-naphthyridin-4-yl)oxy]-3-fluorophenyl]-5-(4-fluorophenyl)-4-hydroxy-6-methylpyridine-3-carboxamide]
3 | > 300 | 100 to 300 | > 300 | < 100 | 100 to 300 |  |  |  | COC(=O)c1cnc2c(Oc3ccc(NC(=O)c4cnc(C)c(-c5ccc(F)cc5)c4O)cc3F)ccnc2c1 [Compound 138, Methyl 8-[2-fluoro-4-[[5-(4-fluorophenyl)-4-hydroxy-6-methylpyridine-3-carbonyl]amino]phenoxy]-1,5-naphthyridine-3-carboxylate]
4 | 100 to 300 | 100 to 300 | 100 to 300 | < 100 | < 100 |  |  |  | COc1nc2c(Oc3ccc(NC(=O)c4cn(C(C)C)c(C)c(-c5ccc(F)cc5)c4=O)cc3F)ccnc2cc1Br [Compound 132, N-[4-[(7-Bromo-6-methoxy-1,5-naphthyridin-4-yl)oxy]-3-fluorophenyl]-5-(4-fluorophenyl)-6-methyl-4-oxo-1-propan-2-ylpyridine-3-carboxamide]
5 | < 100 | < 100 |  |  |  | < 100 | < 100 | < 100 | Cc1cc2c(Oc3ccc(NC(=O)c4cnc(C)c(-c5ccc(F)cc5)c4O)cc3F)ccnc2cn1 [Compound 645, N-[3-fluoro-4-[(6-methyl-1,7-naphthyridin-4-yl)oxy]phenyl]-5-(4-fluorophenyl)-4-hydroxy-6-methylpyridine-3-carboxamide]
6 | < 100 | > 300 | > 300 | < 100 | < 100 |  |  |  | Cc1nc2c(Oc3ccc(NC(=O)c4cn(C(C)C)c(C)c(-c5ccc(F)cc5)c4=O)cc3F)ccnc2cc1Br [Compound 153, N-[4-[(7-Bromo-6-methyl-1,5-naphthyridin-4-yl)oxy]-3-fluorophenyl]-5-(4-fluorophenyl)-6-methyl-4-oxo-1-propan-2-ylpyridine-3-carboxamide]
7 | < 100 | < 100 |  |  |  | < 100 | < 100 | < 100 | Cc1ncc(C(=O)Nc2ccc(Oc3ccnc4cnccc34)c(F)c2)c(O)c1-c1ccc(F)cc1 [Compound 642, N-[3-fluoro-4-(1,7-naphthyridin-4-yloxy)phenyl]-5-(4-fluorophenyl)-4-hydroxy-6-methylpyridine-3-carboxamide]
8 | < 100 | < 100 |  |  |  | < 100 | < 100 | < 100 | Cc1ncc(C(=O)Nc2ccc(Oc3ccnc4cc(-c5cnn(C(F)F)c5)cnc34)cc2)c(O)c1-c1ccc(F)cc1 [Compound 611, N-[4-[[7-[1-(Difluoromethyl)pyrazol-4-yl]-1,5-naphthyridin-4-yl]oxy]phenyl]-5-(4-fluorophenyl)-4-hydroxy-6-methylpyridine-3-carboxamide]
9 | < 100 | < 100 |  |  |  | < 100 | < 100 | < 100 | Cc1nc2c(Oc3ccc(NC(=O)c4cnc(C)c(-c5ccc(F)cc5)c4O)cc3F)ccnc2cc1-c1cnn(C(F)F)c1 [Compound 615, N-[4-[[7-[1-(Difluoromethyl)pyrazol-4-yl]-6-methyl-1,5-naphthyridin-4-yl]oxy]-3-fluorophenyl]-5-(4-fluorophenyl)-4-hydroxy-6-methylpyridine-3-carboxamide hydrochloride]
10 | < 100 | < 100 | 100 to 300 | < 100 | < 100 |  |  |  | COc1cnc2c(Oc3ccc(NC(=O)c4cn(OC)cc(-c5ccc(F)cc5)c4=O)cc3F)ccnc2c1 [Compound 128, N-[3-Fluoro-4-[(7-methoxy-1,5-naphthyridin-4-yl)oxy]phenyl]-5-(4-fluorophenyl)-1-methoxy-4-oxopyridine-3-carboxamide]
11 | > 300 | > 300 |  |  |  | 100 to 300 | < 100 | < 100 | CNC(=O)c1cnc2c(Oc3ccc(NC(=O)c4cnc(C)c(-c5ccc(F)cc5)c4O)cc3F)ccnc2c1 [Compound 578, 8-[2-Fluoro-4-[[5-(4-fluorophenyl)-4-hydroxy-6-methylpyridine-3-carbonyl]amino]phenoxy]-N-methyl-1,5-naphthyridine-3-carboxamide]
12 | < 100 | > 300 | > 300 | < 100 | < 100 |  |  |  | COc1cnc2c(Oc3ccc(NC(=O)c4cn(C(C)C)cc(-c5ccc(F)cc5)c4=O)cc3F)ccnc2c1 [Compound 123, N-[3-Fluoro-4-[(7-methoxy-1,5-naphthyridin-4-yl)oxy]phenyl]-5-(4-fluorophenyl)-4-oxo-1-propan-2-ylpyridine-3-carboxamide]
